The results in this text go back to patent US7902191B2, “Histamine H3 receptor antagonists, preparation and therapeutic uses” (Eli Lilly and Company, priority 2004, dated 2011).

The target of assay [1] is T1, H3R membranes (H3R8-expressing HEK293 cell line) (Homo sapiens, UniProt Q9Y5N1).
T1 construct: expressed in transfected cells
Nature of the assay: [35S] GTP γ[S] binding assay, antagonist activity in the presence of agonist R(−)alpha methylhistamine. Type of assay: biochemical. The settings on record: results given below the [35S]GTPγS assay. On the procedure: Membranes isolated as described in (Preparation of Histamine Receptor Subtype Membranes) were used in a [35S]GTPχS functional assay. Binding of [35S]GTPχS to membranes indicates agonist activity. Compounds of the invention of Formula I or II or III were tested for their ability to inhibit binding in the presence of agonists. Alternately, the same transfected cell lines were used for a cAMP assay wherein H3R agonists inhibited forskolin-activated synthesis of cAMP. Compounds of Formula I or II or III were tested for their ability to permit forskolin-stimulated cAMP synthesis in the presence of agonist.
cDNA for the human histamine 3 receptor was cloned and expressed as described in (A. Preparation H1R membranes), above. Transfected cells were selected using G418 ([…]), grown, and tested for histamine binding by the SPA described above. For total binding, cells were assayed in a SPA reaction described above containing 50 mM Tris-HCL (assay buffer), pH 7.6, 1 mg wheat germ agglutinin SPA beads (Amersham Pharmacia Biotech, #RPNQ0001), and 1 nM (3H)-n-alpha-methylhistamine (NEN, NET1027) (total volume per well=200 μl). Thioperimide was added to determine non-specific binding. […]
Antagonist activity of selected compounds was tested for inhibition of [35S] […] Plates were counted in Wallac Trilux 1450 Microbeta scintillation counter for 1 minute. […]
Background: GTPγS is a poorly hydrolysed GTP analogue; its binding reports G protein activation.

Assay [2] concerns the target T2, H3R (human histamine 3 receptor) (Homo sapiens, UniProt Q9Y5N1).
T2 construct: expressed in transfected cells
The experiment in a line: competitive inhibition SPA binding assay, H3R, (3H)-n-alpha-methylhistamine. The conditions noted are these: selectivity panel. The text has this:
The inventive compounds can readily be evaluated by using a competitive inhibition Scintillation Proximity Assay (SPA) based on a H3R binding assay using [3H] α methylhistamine as ligand. Stable cell lines, including but not limited to HEK can be transfected with cDNA coding for H3R to prepare membranes used for the binding assay. The technique is illustrated below (Preparation of Histamine Receptor Subtype Membranes) for the histamine receptor subtypes.
cDNA for the human histamine 3 receptor was cloned and expressed as described in (A. Preparation H1R membranes), above. Transfected cells were selected using G418 ([…]), grown, and tested for histamine binding by the SPA described above. For total binding, cells were assayed in a SPA reaction described above containing 50 mM Tris-HCL (assay buffer), pH 7.6, 1 mg wheat germ agglutinin SPA beads (Amersham Pharmacia Biotech, #RPNQ0001), and 1 nM (3H)-n-alpha-methylhistamine (NEN, NET1027) (total volume per well=200 μl). Thioperimide was added to determine non-specific binding. Several clones were selected as positive for binding, and a single clone (H3R8) was used to prepare membranes for binding studies described above. Five micrograms of protein was used per well in the SPA receptor-binding assay.
To investigate the selectivity of the antagonists for the histamine receptors, a competitive binding assay described above was performed. […]

For assay [3], the target named is T3, H4R (human GPRv53 receptor) (Homo sapiens, UniProt Q9H3N8).
T3 construct: expressed in transfected cells; host or cells: HEK293 GPRv53 50 cells (whole-cell homogenate/lysate)
T3 sequence (Q9H3N8 whole entry): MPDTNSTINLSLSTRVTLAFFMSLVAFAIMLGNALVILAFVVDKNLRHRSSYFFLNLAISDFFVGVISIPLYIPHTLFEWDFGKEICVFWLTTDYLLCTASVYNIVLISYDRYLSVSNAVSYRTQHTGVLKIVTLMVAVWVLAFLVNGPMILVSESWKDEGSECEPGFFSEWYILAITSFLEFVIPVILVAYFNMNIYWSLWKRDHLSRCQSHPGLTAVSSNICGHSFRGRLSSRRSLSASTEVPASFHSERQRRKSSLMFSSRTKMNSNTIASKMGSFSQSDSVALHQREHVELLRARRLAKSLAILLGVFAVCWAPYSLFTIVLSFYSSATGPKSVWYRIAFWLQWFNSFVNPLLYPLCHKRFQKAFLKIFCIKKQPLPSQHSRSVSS
Nature of the assay: competitive binding assay, GPRv53 (H4R), (3H) Histamine. On the procedure: cDNA for the human GPRv53 receptor was cloned and expressed as described in (A. Preparation H1R membranes), above. Transfected cells were selected, tested for histamine binding, and selected. HEK293 GPRv53 50 cells were grown to confluency in DMEM/F12 (Gibco) supplemented with 5% FBS and 500 ug/ml G418 and washed with Delbecco's PBS (Gibco) and harvested by scraping. Whole cells were homogenized with a Polytron tissuemizer in binding buffer, 50 mM Tris pH 7.5. Cell lysates, 50 ug, were incubated in 96 well dishes with 3 nM (3H) Histamine and compounds in binding buffer for 2 hours at room temperature. Lysates were filtered through glass fiber filters (Perkin Elmer) with a Tomtec cell harvester. Filters were counted with melt-on scintillator sheets (Perkin Elmer) in a Wallac Trilux 1450 Microbeta Scintillation counter for 5 minutes.
(§1) To investigate the selectivity of the antagonists for the histamine receptors, a competitive binding assay described above was performed. […] Until the present invention, most known H3R antagonists also bound H4R.

Assay [4] concerns the target T4, H1R (human histamine 1 receptor) (Homo sapiens, UniProt P35367).
T4 construct: expressed in transfected cells
Nature of the assay: competitive SPA binding assay, H1R, 3H-pyrilamine. The conditions noted are these: selectivity panel. On the procedure:
cDNA for the human histamine 1 receptor (H1R) was cloned into a mammalian expression vector containing the CMV promoter (pcDNA3.1(+), Invitogen) and transfected into HEK293 cells using the FuGENE Tranfection Reagent (Roche Diagnostics Corporation). Transfected cells were selected using G418 (500 μ/ml). Colonies that survived selection were grown and tested for histamine binding to cells grown in 96-well dishes using a scintillation proximity assay (SPA) based radioligand binding assay. Briefly, cells, representing individual selected clones, were grown as confluent monolayers in 96-well dishes (Costar Clear Bottom Plates, #3632) by seeding wells with 25,000 cells and growing for 48 hours (37° C., 5% CO2). Growth media was removed and wells were rinsed two times with PBS (minus Ca^2+ or Mg^2+). For total binding, cells were assayed in a SPA reaction containing 50 mM Tris-HCL (assay buffer), pH 7.6, 1 mg wheat germ agglutinin SPA beads (Amersham Pharmacia Biotech, #RPNQ0001), and 0.8 nM ^3H-pyrilamine (Net-594, NEN) (total volume per well ˜200 μl). Astemizole (10 μM, Sigma #A6424) was added to appropriate wells to determine non-specific binding. Plates were covered with FasCal and incubated at room temperature for 120 minutes. […] Plates were counted in a Wallac Trilux 1450 Microbeta scintillation counter. […]

The target of assay [5] is T5, H2 (human histamine 2 receptor) (Homo sapiens, UniProt P25021).
T5 construct: expressed in transfected cells
T5 sequence (P25021 whole entry): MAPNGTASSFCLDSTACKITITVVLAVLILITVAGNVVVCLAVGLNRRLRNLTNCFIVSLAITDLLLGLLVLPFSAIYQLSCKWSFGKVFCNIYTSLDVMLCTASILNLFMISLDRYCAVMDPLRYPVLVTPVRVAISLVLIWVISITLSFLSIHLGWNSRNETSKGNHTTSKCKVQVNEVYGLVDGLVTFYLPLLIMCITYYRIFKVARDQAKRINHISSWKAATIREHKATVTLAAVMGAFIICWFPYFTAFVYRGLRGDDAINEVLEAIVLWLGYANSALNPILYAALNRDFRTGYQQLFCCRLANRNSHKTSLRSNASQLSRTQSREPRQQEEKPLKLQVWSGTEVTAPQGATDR
The experiment in a line: competitive SPA binding assay, H2R, 3H-tiotidine. The conditions noted are these: selectivity panel. On the procedure:
cDNA for the human histamine 2 receptor was cloned, expressed and transfected into HEK 293 cells as described above. Histamine binding to cells was assayed by SPA described above. For total binding, cells were assayed in a SPA reaction containing 50 mM Tris-HCl (assay buffer), pH 7.6, 1 mg wheat germ agglutinin SPA beads (Amersham Pharmacia Biotech, #RPNQ0001), and 6.2 nM ^3H-tiotidine (Net-688, NEN) (total volume per well=200 μl). Cimetidine (10 μM, Sigma #C4522) was added to appropriate wells to determine non-specific binding.
Several clones were selected as positive for binding, and a single clone (H2R10) was used to prepare membranes for binding studies. Five micrograms of protein was used per well in the SPA receptor-binding assay.
as §1

Molecules are shown by their SMILES.

T1 sequence (Q9Y5N1 whole entry): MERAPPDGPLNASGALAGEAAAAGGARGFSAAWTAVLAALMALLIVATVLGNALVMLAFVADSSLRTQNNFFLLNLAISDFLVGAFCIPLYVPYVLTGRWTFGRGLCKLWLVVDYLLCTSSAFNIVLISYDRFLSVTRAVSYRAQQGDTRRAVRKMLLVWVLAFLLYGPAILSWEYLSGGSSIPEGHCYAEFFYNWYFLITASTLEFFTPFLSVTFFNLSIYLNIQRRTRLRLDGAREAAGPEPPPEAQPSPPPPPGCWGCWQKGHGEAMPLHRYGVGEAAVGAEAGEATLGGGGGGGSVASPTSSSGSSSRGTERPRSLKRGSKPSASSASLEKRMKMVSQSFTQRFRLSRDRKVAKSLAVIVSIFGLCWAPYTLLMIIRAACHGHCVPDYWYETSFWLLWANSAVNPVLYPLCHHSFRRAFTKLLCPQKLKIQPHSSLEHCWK
T2 sequence (Q9Y5N1 whole entry): as above
T4 sequence (P35367 whole entry): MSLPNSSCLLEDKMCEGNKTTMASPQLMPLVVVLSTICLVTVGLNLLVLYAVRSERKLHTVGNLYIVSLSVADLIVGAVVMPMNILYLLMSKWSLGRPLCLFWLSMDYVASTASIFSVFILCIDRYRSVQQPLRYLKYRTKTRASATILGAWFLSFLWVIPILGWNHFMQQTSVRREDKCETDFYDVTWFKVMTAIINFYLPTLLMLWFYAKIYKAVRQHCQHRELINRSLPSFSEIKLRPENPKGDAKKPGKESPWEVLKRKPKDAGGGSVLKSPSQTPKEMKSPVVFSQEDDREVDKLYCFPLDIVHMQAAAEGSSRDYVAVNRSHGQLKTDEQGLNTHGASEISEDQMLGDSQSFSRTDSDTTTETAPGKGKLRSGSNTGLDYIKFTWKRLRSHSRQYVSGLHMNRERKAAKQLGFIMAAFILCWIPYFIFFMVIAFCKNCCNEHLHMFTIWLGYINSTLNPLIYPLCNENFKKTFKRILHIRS

As to `O=C(c1ccc2c(c1)CCC(N1CCCC1)C2)N1CCC[C@H]1CN1CCCC1` (mixture of isomers) [Example 3, (2-Pyrrolidin-1-ylmethyl-pyrrolidin-1-yl)-(6-pyrrolidin-1-yl-5,6,7,8-tetrahydro-naphthalen-2-yl)-methanone], the Ki in assay [1] stood at 1.5 nM.
The same measure, in the same setting: next, `O=C(c1ccc2c(c1)CCC(N1CCOCC1)C2)N1CCC[C@H]1CN1CCCC1` (mixture of isomers) [Example 6, (6-Morpholin-4-yl-5,6,7,8-tetrahydro-naphthalen-2-yl)-(2-pyrrolidin-1-ylmethyl-pyrrolidin-1-yl)-methanone]: 7.8 nM.
Consider `O=C(c1ccc2c(c1)CCCC2)N1CCC[C@H]1CN1CCCC1` [Example 15, (S)-(2-Pyrrolidin-1-ylmethyl-pyrrolidin-1-yl)-(5,6,7,8-tetrahydro-naphthalen-2-yl)-methanone], for which the Ki is 1.8 nM in assay [2], at least 20000 nM in assay [3] (selectivity panel), at least 20000 nM in assay [4] and at least 17800 nM in assay [5]. In assay [3] (statement in words), the “inhibition of binding to H4R compared to H3R” value is reported as “did not inhibit binding H4R”.

A word on the Ki: it is the dissociation constant of the complex between target and ligand, obtained from inhibition or displacement.
